Marks after values point to notes of the source that are not given here.
How the values were obtained:
GDF-15 [1] = conditions: patients with symptomatic heart failure (Anand et al.); cited from earlier work
[2] = test system: B-type natriuretic peptide; conditions: patients with symptomatic heart failure (Anand et al.); cited from earlier work
GDF-15 [3] = assay: Serum GDF-15 by electrochemiluminescent immunoassay in placebo-controlled acute heart failure trial (Example 1); assay type: in vivo, human
Protocol: (§1) In an international, double-blind, placebo-controlled trial (Teerlink et al., Lancet 381:29-39 (2013)) the entire contents of which are herein incorporated by reference, patients displaying pulmonary congestion on chest radiograph and admitted to the hospital for acute heart failure were randomized to a 48 hour intravenous infusion of placebo or 30 μg/kg/d serelaxin. Time elapsed from arrival to the hospital to the intravenous administration of serelaxin was less than nine hours. […] The 48 hour infusion of serelaxin reduced cardiovascular death at 180 days ([…]). No previous intervention outcome trial in patients with acute heart failure has shown a beneficial effect on post discharge mortality.
Blood samples for biomarker analysis were collected in serum separating tubes prior to initiation of serelaxin or placebo (baseline) and at days 2, 5, 14, and 60. ‘The serum samples were centrifuged within 30 to 60 minutes of collection following visualization of a clot, frozen at −20° C. for up to four weeks, then sent on dry ice to a central laboratory for storage at −80° C. until the analysis was performed. GDF-15 was measured in the samples using a pre-commercial electrochemiluminescent immunoassay provided by Roche Diagnostics GmbH (Mannheim, Germany). All samples from the same patient were analyzed at the same time at a certified central laboratory by personnel blinded to patient treatment and study data. The reporting range for GDF-15 was 400 to 20,000 ng/L.
Multivariable linear regression models were developed for the changes in GDF-15 levels from baseline to days 2 and 14 using baseline patient clinical characteristics and routine laboratory measures; backwards elimination in the placebo, group was used, with p<0.10 as the criterion for retention in the model. Missing predictors were imputed with the treatment-group-specific median for continuous variables and mode for categorical variables. GDF-15 values were log-transformed. The linearity of associations was assessed using restricted cubic splines, and if significant non-linearity was found (at p<0.10), a dichotomized, trichotoniized, linear spline or quadratic or cubic polynomial transformation was chosen based on the univariable Akaike's Information Criterion. Adjusted R^2 values from 5-fold cross-validations are presented. The serelaxin effect on biomarker changes was then estimated in all patients with multivariable adjustment for covariates prognostic of these changes in the placebo group.

[4] = test system: patients with acute heart failure; assay: Clinical outcomes in the acute heart failure trial (dyspnea, hospital stay, cardiovascular death); assay type: in vivo, human
Protocol: as §1
Changes in patient-reported dyspnea were assessed through day 5 as the area under the change from baseline in visual analog scale score through day 5, where the worst possible score was assigned following death or worsening heart failure (dyspnea VAS AUC). Reasons for rehospitalization through day 60 and causes of deaths through day 180 were adjudicated centrally by a blinded endpoint committee.

[5] = test system: patients with acute heart failure; assay: Cox regression models of 180-day cardiovascular mortality in the acute heart failure trial; assay type: in vivo, human
Text: Multivariable linear regression models were developed for the changes in biomarker levels from baseline to day 2 and 14 using baseline patient clinical characteristics and routine laboratory measures; backwards elimination in the placebo group was used, with p<0.10 as the criterion for retention in the model. Missing predictors were imputed with the treatment-group-specific median for continuous variables and mode for categorical variables. GDF-15 values were log-transformed. To allow consistency and comparability of models with and without biomarkers, missing follow-up biomarker levels were imputed using linear interpolation or as last observation carried forward if no following measure was available. The linearity of associations was assessed using restricted cubic splines, and if significant non-linearity was found (at p<0.10), a dichotomized, trichotomized, linear spline or quadratic or cubic polynomial transformation was chosen based on the univariable Akaike's Information Criterion. The serelaxin effect on GDF-15 changes was then estimated with multivariable adjustment for covariates prognostic of these changes in the placebo group.
Associations of baseline biomarker values and changes with clinical outcomes were estimated with linear regression for dyspnea VAS AUC, and with Cox regression models for 60-day rehospitalization for heart failure or renal failure or cardiovascular death and for 180-day cardiovascular mortality. Linearity of associations of GDF-15 values with outcomes was assessed as above. Mean changes in biomarkers over time were estimated from repeated measures analysis of variance models, with no imputation for missing values.

GDF-15 [6] = assay: GDF-15 in the pulmonary hemodynamic study, 20 hour infusion (Example 2); assay type: in vivo, human
Protocol: (§2) In a separate study, the pulmonary hemodynamic effects (e.g., the pulomonary load) of serelaxin were evaluated in patients hospitalized with acute heart failure (Ponikowski et al., Eur Heart J 35:431-441 (2014)). Patients were randomized 1:1 to serelaxin or placebo, initially stabilized, then infused with serelaxin at a dose of 30 ug/kg/d for 20 hours. Pulmonary congestion at the time of presentation was a required inclusion criterion. Time elapsed from hospital admission to the beginning of intravenous infusion of serelaxin was less than 29 hours. Serelaxin exerted rapid hemodynamic effects; changes were detected within the first 30 minutes of infusion and were sustained throughout the treatment period. Serelaxin reduced the time weighted average pulmonary capillary wedge pressure from baseline in the first eight hours of treatment (p=0.0001) as well as during hours 8-20 (p=0.03).
GDF-15 was measured in blood samples collected in serum separating tubes. The serum samples were centrifuged within two hours and plasma was stored at −20° C. or lower, followed by storage at −80° C. until the analysis was performed. GDF-15 was measured using a pre-commercial electrochemiluminescent immunoassay provided by Roche Diagnostics GmbH (Mannheim, Germany). All samples from the same patient were analyzed at the same time at a certified central laboratory by personnel blinded to patient treatment and study data.

[7] = test system: patients hospitalized with acute heart failure; assay: Pulmonary hemodynamic effects in patients hospitalized with acute heart failure (Example 2); assay type: in vivo, human
Protocol: as §2
(§3) Pulmonary capillary wedge pressure (PCWP), mean pulmonary artery pressure (PAP), and pulmonary vascular resistance (PVR) were measured as well as NTproBNP and GDF-15 An analysis was performed of the association of GDF-15 and NTproBNP with these hemodynamic indices.

NTproBNP = NTproBNP in the pulmonary hemodynamic study (Example 2); assay type: in vivo, human; conditions: 20 hour infusion; p=0.037
Protocol: as §2, §3

[8] = test system: patients with acute heart failure; conditions: Phase 3 trial in acute heart failure (Teerlink et al.); cited from earlier work
[9] = 30 ug/kg/d infusion for 20 hours

Molecule: CCCCC(=O)N(Cc1ccc(-c2ccccc2-c2nnn[nH]2)cc1)[C@H](C(=O)O)C(C)C [Valsartan]
- effect on GDF-15 (GDF-15 [1]): no effect
- heart failure biomarker B-type natriuretic peptide [2]: lower

Molecule: Serelaxin
- GeoMean GDF-15 (GDF-15 [3]; Baseline (before start of infusion)): 4380.3 ng/L
- Median GDF-15 (GDF-15 [3]; Baseline (before start of infusion), serelaxin group n = 530): 4115.5 ng/L
- GDF-15 GeoMean Change vs Baseline (GDF-15 [3]; Day 2): −21.6%*
- GeoMean GDF-15 (GDF-15 [3]; Day 2, 48 hour iv infusion 30 μg/kg/d): 3395.6 ng/L
- Median GDF-15 (GDF-15 [3]; Day 2, 48 hour iv infusion 30 μg/kg/d, n = 530): 3341.0 ng/L
- GDF-15 GeoMean Change vs Baseline (GDF-15 [3]; Day 5): −14.95* %
- GeoMean GDF-15 (GDF-15 [3]; Day 5, 48 hour iv infusion 30 μg/kg/d): 3690.3 ng/L
- Median GDF-15 (GDF-15 [3]; Day 5, 48 hour iv infusion 30 μg/kg/d, n = 530): 3584.5 ng/L
- GDF-15 GeoMean Change vs Baseline (GDF-15 [3]; Day 14): −20.2%*
- GeoMean GDF-15 (GDF-15 [3]; Day 14, 48 hour iv infusion 30 μg/kg/d): 3397.0 ng/L
- Median GDF-15 (GDF-15 [3]; Day 14, 48 hour iv infusion 30 μg/kg/d, n = 530): 3296.0 ng/L
- GDF-15 GeoMean Change vs Baseline (GDF-15 [3]; Day 60): −26.4%*
- GeoMean GDF-15 (GDF-15 [3]; Day 60, 48 hour iv infusion 30 μg/kg/d): 3114.0 ng/L
- Median GDF-15 (GDF-15 [3]; Day 60, 48 hour iv infusion 30 μg/kg/d, n = 530): 2981.5 ng/L
- GDF-15 levels versus placebo, both in addition to standard of care (GDF-15 [3]; day 14): approached statistical significance
- GDF-15 level (GDF-15 [3]; day 60): trend towards lower
- GDF-15 levels versus placebo, both in addition to standard of care (GDF-15 [3]; days 2 and 5): significantly lower
- decrease in GDF-15 (GDF-15 [3]; to day 14): faster decrease
- cardiovascular death at 180 days ([4]; 48 hour infusion, p=0.28): reduced
- patient-reported general well-being ([4]; 48 hour iv infusion 30 μg/kg/d): improvements
- primary dyspnea efficacy endpoint, Visual Acuity Scale area under the curve ([4]; 48 hour iv infusion 30 μg/kg/d vs placebo, p=0.007): significantly improved
- reduction of time in the intensive care or coronary care unit ([4]; vs placebo, p=0.03): 0.4 days
- reduction of average length of hospital stay ([4]; vs placebo, p=0.04): 0.9 days
- HR, CV death through Day 180 ([5]; adjusted for baseline GDF-15 and change in GDF-15 from baseline to Day 2): 0.832
- HR, CV death through Day 180 ([5]; adjusted for baseline GDF-15 and change in GDF-15 from baseline to Day 14, N = 1037): 0.847
- HR, CV death through Day 180 ([5]; adjusted for change in GDF-15 from baseline to Day 2 and multivariable predictors of outcome): 0.763
- HR, CV death through Day 180 ([5]; adjusted for change in GDF-15 from baseline to Day 14 and multivariable predictors of outcome, N = 1037): 0.753
- hazard ratio for 180-day CV mortality ([5]; multivariable adjustment for baseline covariates, without GDF-15 change, 95% CI 0.430-1.028): 0.665
- hazard ratio for 180-day CV mortality ([5]; unadjusted for other baseline covariates, 95% CI 0.403-0.950): 0.619
- GDF-15 levels versus placebo (GDF-15 [6]; [9]): significantly decreased
- reduction of GDF-15 geo-mean from baseline (GDF-15 [6]; [9]): 16%
- GDF-15 treatment difference in favor of serelaxin versus placebo (GDF-15 [6]; 30 ug/kg/d infusion for 20 hours, p=0.0204): 18%
- baseline median GDF-15 (GDF-15 [6]; baseline, serelaxin group): 3260 ng/L
- pulmonary vascular resistance ([7]; 30 ug/kg/d infusion): concomitant decrease
- systemic vascular resistance ([7]; 30 ug/kg/d infusion): concomitant decrease
- time weighted average pulmonary capillary wedge pressure from baseline ([7]; first eight hours of treatment, p=0.0001): reduced
- time until hemodynamic changes were detected ([7]; from start of infusion, sustained throughout the treatment period): ≤ 30 min
- time weighted average pulmonary capillary wedge pressure from baseline ([7]; hours 8-20, p=0.03): reduced
- improvements in PCWP, PAP and PVR compared to placebo ([7]; over the 20 hour infusion period, all p values <0.005): favored serelaxin
- systolic and diastolic pulmonary arterial pressure ([7]; p=0001 at four hours): significantly lowered
- NTproBNP (NTproBNP): significantly reduced
- dyspnea [8]: rapid relief
- mortality at six months [8]: reduced

From patent US20190022189A1, “USE OF SERELAXIN TO REDUCE GDF-15” (NOVARTIS AG, priority 2014, published 2019)
